The results in this text go back to patent US12662479B2 (Foghorn Therapeutics Inc., priority 2020, dated 2026).

The target of one assay is T1, HiBit-BRM fusion protein (Homo sapiens, UniProt P51531).
T1 construct: expressed in transfected cells
Briefly: HiBiT-BRM cell-based degradation assay (Nano-Glo HiBiT Lytic Detection, 24 h). The following applies: HeLa cells expressing HiBiT-BRM; for DC50: read-out: BRM HiBit Degradation IC50; for BRM HiBit Degradation Maximum measured: top dose 30 μM. An outline of the steps:
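HeLa cells stably expressing HiBiT-BRM were treated for 24 h with compounds (10-point 3-fold dilutions, 30 μM final top dose, in duplicate). HiBiT was detected by lytic LgBiT complementation luminescence. % degradation was normalized to DMSO (high control) and 2 μM of a reference BRM/BRG1 degrader (low control).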

The target in assay [1] is T2, HiBit-BRG1 fusion protein (Homo sapiens, UniProt P51532).
T2 construct: expressed in transfected cells
As to the kind of experiment: HiBiT-BRG1 cell-based degradation assay (Nano-Glo HiBiT Lytic Detection, 24 h). The following applies: HeLa cells expressing HiBit-BRG1 and LgBit; for DC50: read-out: BRG1 HiBit Degradation IC50; for Dmax: HeLa, top dose 30 μM, read-out: BRG1 HiBit Degradation Maximum measured. The method, boiled down:
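Stable HeLa line expressing HiBiT-BRG1 and LgBiT, seeded at 5000 cells/well; luminescence read after lytic Nano-Glo HiBiT reagent and 10 min shaking at RT. % degradation normalised between DMSO (high control) and 2 μM reference BRM/BRG1 degrader (low control).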

T2 sequence (P51532 whole entry, the tested form may be a part): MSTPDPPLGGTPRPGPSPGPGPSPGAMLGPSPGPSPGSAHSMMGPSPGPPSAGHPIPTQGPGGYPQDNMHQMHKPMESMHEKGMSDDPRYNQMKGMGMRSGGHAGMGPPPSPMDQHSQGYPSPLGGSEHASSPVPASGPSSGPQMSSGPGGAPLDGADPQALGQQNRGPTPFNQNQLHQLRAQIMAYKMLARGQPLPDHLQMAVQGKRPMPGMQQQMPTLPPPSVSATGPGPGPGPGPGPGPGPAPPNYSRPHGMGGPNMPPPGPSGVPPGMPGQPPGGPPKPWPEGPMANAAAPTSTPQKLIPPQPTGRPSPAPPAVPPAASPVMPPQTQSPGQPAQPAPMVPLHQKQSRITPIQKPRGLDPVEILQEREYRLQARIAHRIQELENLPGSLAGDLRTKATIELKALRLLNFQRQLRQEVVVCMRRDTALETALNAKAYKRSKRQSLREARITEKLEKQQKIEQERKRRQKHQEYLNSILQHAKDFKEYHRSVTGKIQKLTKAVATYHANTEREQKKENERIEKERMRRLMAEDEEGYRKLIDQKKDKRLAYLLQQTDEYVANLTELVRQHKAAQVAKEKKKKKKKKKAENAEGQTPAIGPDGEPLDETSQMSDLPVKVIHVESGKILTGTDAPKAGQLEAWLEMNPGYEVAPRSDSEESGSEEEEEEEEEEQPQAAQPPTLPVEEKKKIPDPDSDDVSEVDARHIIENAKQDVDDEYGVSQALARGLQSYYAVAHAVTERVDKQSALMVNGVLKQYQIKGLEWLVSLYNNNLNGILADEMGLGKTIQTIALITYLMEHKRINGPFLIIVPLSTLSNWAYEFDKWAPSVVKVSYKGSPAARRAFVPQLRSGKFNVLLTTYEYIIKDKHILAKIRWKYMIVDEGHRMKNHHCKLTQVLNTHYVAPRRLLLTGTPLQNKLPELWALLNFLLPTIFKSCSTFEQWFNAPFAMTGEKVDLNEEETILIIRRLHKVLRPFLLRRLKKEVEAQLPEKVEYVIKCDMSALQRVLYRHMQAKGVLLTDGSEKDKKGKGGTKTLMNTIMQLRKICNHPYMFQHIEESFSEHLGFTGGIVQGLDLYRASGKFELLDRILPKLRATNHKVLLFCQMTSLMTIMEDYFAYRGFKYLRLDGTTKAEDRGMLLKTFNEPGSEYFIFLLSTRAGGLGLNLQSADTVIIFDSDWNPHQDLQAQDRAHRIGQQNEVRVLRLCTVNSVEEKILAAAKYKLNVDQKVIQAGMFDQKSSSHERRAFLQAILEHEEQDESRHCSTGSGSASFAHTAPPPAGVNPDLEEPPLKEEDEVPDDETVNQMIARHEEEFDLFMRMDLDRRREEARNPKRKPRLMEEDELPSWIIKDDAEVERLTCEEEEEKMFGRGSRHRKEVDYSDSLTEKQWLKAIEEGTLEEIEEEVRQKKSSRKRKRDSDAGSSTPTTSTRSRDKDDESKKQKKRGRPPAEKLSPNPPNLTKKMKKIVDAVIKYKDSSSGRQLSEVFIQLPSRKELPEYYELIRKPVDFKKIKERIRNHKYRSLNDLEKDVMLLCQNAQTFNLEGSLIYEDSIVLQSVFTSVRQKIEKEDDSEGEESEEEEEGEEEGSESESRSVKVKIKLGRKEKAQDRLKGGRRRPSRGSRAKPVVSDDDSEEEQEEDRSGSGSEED
T1 sequence (P51531 whole entry, the tested form may be a part): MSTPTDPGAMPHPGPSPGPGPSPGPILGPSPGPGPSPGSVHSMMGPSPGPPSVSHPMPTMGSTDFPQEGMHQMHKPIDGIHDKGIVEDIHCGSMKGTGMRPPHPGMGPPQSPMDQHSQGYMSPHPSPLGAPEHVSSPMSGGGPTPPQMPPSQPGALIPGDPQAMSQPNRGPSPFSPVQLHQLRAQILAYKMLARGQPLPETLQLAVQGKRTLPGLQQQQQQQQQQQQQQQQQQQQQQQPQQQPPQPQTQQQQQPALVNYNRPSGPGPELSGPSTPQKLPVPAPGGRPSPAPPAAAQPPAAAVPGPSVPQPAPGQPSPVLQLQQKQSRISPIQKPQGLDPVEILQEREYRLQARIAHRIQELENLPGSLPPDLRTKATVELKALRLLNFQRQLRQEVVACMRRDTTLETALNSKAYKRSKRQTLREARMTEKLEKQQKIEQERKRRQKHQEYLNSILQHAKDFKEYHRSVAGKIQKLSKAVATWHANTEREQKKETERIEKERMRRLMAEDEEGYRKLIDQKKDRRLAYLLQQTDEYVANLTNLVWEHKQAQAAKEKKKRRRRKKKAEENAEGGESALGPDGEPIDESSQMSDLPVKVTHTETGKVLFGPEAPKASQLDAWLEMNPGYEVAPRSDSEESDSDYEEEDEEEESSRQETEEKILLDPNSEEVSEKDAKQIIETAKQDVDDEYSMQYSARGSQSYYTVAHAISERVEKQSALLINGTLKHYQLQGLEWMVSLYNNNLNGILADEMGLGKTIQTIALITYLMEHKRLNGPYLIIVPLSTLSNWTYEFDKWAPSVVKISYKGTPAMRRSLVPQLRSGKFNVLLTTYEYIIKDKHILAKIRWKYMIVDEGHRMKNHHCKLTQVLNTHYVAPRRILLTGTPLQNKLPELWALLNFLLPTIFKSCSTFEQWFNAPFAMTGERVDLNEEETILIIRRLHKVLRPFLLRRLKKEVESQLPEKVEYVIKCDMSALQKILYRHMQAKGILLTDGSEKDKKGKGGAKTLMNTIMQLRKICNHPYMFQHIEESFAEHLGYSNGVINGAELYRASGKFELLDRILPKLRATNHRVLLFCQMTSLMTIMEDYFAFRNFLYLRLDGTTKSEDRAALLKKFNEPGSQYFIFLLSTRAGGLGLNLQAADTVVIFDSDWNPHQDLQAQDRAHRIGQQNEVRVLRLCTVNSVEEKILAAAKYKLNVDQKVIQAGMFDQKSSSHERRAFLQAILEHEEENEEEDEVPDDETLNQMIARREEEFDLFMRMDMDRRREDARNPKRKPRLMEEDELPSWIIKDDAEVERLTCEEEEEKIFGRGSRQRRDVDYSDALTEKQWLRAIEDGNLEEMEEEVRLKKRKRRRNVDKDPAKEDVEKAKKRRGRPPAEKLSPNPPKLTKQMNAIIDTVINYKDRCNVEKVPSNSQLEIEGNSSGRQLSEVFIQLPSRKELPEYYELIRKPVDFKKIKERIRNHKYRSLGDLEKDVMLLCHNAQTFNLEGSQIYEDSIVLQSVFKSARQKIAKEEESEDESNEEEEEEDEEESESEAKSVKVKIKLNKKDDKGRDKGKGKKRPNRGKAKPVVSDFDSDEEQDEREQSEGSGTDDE

As for `CS(=O)(=O)n1ccc(C(=O)N[C@@H](COCc2ccc(C(=O)NCCCC#Cc3ccc4c(c3)C(=O)N(C3CCC(=O)NC3=O)C4=O)cc2)C(=O)Nc2nc(-c3ccccc3)cs2)c1` (stereo partly drawn) [Compound 204, N-[5-[2-(2,6-dioxopiperidin-3-yl)-1,3-dioxoisoindol-5-yl]pent-4-yn-1-yl]-4-[[(2S)-2-[(1-methanesulfonylpyrrol-3-yl)formamido]-2-[(4-phenyl-1,3-thiazol-2-yl)carbamoyl]ethoxy]methyl]benzamide], on HiBit-BRM fusion protein, the DC50 is over 10000 nM and the “BRM HiBit Degradation Maximum measured” value is “C (‘C’ = Maximum degradation <50%)”. In addition, in assay [1], the DC50 was 100 to 1000 nM and the Dmax was in the range of 50 to 75%.
Taken in the same sequence, the figures for `CS(=O)(=O)n1ccc(C(=O)N[C@@H](COCc2ccc(C(=O)NCCCC#Cc3cccc4c3C(=O)N(C3CCC(=O)NC3=O)C4=O)cc2)C(=O)Nc2nc(-c3ccccc3)cs2)c1` (stereo partly drawn) [Compound 205, N-[5-[2-(2,6-dioxopiperidin-3-yl)-1,3-dioxoisoindol-4-yl]pent-4-yn-1-yl]-4-[[(2S)-2-[(1-methanesulfonylpyrrol-3-yl)formamido]-2-[(4-phenyl-1,3-thiazol-2-yl)carbamoyl]ethoxy]methyl]benzamide] were over 10000 nM, “C (‘C’ = Maximum degradation <50%)”, over 10000 nM and under 50%.
Taken in the same sequence, the figures for `CS(=O)(=O)n1ccc(C(=O)N[C@@H](COCc2ccc(C(=O)NCCOc3cccc(OCCNc4cccc5c4C(=O)N(C4CCC(=O)NC4=O)C5=O)c3)cc2)C(=O)Nc2nc(-c3ccccc3)cs2)c1` (stereo partly drawn) [Compound 206, N-[2-[3-(2-[[2-(2,6-dioxopiperidin-3-yl)-1,3-dioxoisoindol-4-yl]amino]ethoxy)phenoxy]ethyl]-4-[[(2S)-2-[(1-methanesulfonylpyrrol-3-yl)formamido]-2-[(4-phenyl-1,3-thiazol-2-yl)carbamoyl]ethoxy]methyl]benzamide] were over 10000 nM, “C (‘C’ = Maximum degradation <50%)”, over 10000 nM and under 50%.
Turning to `CS(=O)(=O)n1ccc(C(=O)N[C@@H](COCc2ccc(C(=O)NCCOc3cccc(OCCNc4ccc5c(c4)C(=O)N(C4CCC(=O)NC4=O)C5=O)c3)cc2)C(=O)Nc2nc(-c3ccccc3)cs2)c1` (stereo partly drawn) [Compound 207, N-[2-[3-(2-[[2-(2,6-dioxopiperidin-3-yl)-1,3-dioxoisoindol-5-yl]amino]ethoxy)phenoxy]ethyl]-4-[[(2S)-2-[(1-methanesulfonylpyrrol-3-yl)formamido]-2-[(4-phenyl-1,3-thiazol-2-yl)carbamoyl]ethoxy]methyl]benzamide], at HiBit-BRM fusion protein, the DC50 was in the range of 100 to 1000 nM; the “BRM HiBit Degradation Maximum measured” value is “B (‘B’ = Maximum degradation ≥50% and ≤75%)”. For the same molecule, in assay [1], the DC50 lay in the range of 100 to 1000 nM and the Dmax lay within 50 to 75%.
Regarding `Cc1ncsc1-c1ccc(CNC(=O)[C@@H]2C[C@@H](O)CN2C(=O)[C@@H](NC(=O)CCCCC(=O)NCc2ccc(COC[C@H](NC(=O)c3ccn(S(C)(=O)=O)c3)C(=O)Nc3nc(-c4ccccc4)cs3)cc2)C(C)(C)C)cc1` [Compound 208, N-[(2S)-1-[(2S,4R)-4-hydroxy-2-([[4-(4-methyl-1,3-thiazol-5-yl)phenyl]methyl]carbamoyl)pyrrolidin-1-yl]-3,3-dimethyl-1-oxobutan-2-yl]-N′-[(4-[[(2S)-2-[(1-methanesulfonylpyrrol-3-yl)formamido]-2-[(4-phenyl-1,3-thiazol-2-yl)carbamoyl]ethoxy]methyl]phenyl)methyl]hexanediamide], at HiBit-BRM fusion protein, the DC50 was over 10000 nM and the “BRM HiBit Degradation Maximum measured” value is recorded as “C (‘C’ = Maximum degradation <50%)”. In assay [1], the DC50 was over 10000 nM and the Dmax is under 50%.
For the molecule `Cc1ncsc1-c1ccc(CNC(=O)[C@@H]2C[C@@H](O)CN2C(=O)[C@@H](NC(=O)CCCCCCCCCCC(=O)NCc2ccc(COC[C@H](NC(=O)c3ccn(S(C)(=O)=O)c3)C(=O)Nc3nc(-c4ccccc4)cs3)cc2)C(C)(C)C)cc1` [Compound 209, N-[(2S)-1-[(2S,4R)-4-hydroxy-2-([[4-(4-methyl-1,3-thiazol-5-yl)phenyl]methyl]carbamoyl)pyrrolidin-1-yl]-3,3-dimethyl-1-oxobutan-2-yl]-N′-[(4-[[(2S)-2-[(1-methanesulfonylpyrrol-3-yl)formamido]-2-[(4-phenyl-1,3-thiazol-2-yl)carbamoyl]ethoxy]methyl]phenyl)methyl]dodecanediamide], on HiBit-BRM fusion protein, the DC50 is over 10000 nM and the “BRM HiBit Degradation Maximum measured” value was “C (‘C’ = Maximum degradation <50%)”. Further, in assay [1], the DC50 is over 10000 nM and the Dmax was under 50%.
As for `Cc1ncsc1-c1ccc(CNC(=O)[C@@H]2C[C@@H](O)CN2C(=O)[C@@H](NC(=O)CCCCCCC(=O)NCc2ccc(COC[C@H](NC(=O)c3ccn(S(C)(=O)=O)c3)C(=O)Nc3nc(-c4ccccc4)cs3)cc2)C(C)(C)C)cc1` [Compound 210, N-[(2S)-1-[(2S,4R)-4-hydroxy-2-([[4-(4-methyl-1,3-thiazol-5-yl)phenyl]methyl]carbamoyl)pyrrolidin-1-yl]-3,3-dimethyl-1-oxobutan-2-yl]-N′-[(4-[[(2S)-2-[(1-methanesulfonylpyrrol-3-yl)formamido]-2-[(4-phenyl-1,3-thiazol-2-yl)carbamoyl]ethoxy]methyl]phenyl)methyl]octanediamide], at HiBit-BRM fusion protein, the DC50 is over 10000 nM and the “BRM HiBit Degradation Maximum measured” value is “C (‘C’ = Maximum degradation <50%)”. Besides, in assay [1], the DC50 was over 10000 nM and the Dmax is under 50%.
For `Cc1ncsc1-c1ccc(CNC(=O)[C@@H]2C[C@@H](O)CN2C(=O)[C@@H](NC(=O)CCCCCCCCCCCCC(=O)NCc2ccc(COC[C@H](NC(=O)c3ccn(S(C)(=O)=O)c3)C(=O)Nc3nc(-c4ccccc4)cs3)cc2)C(C)(C)C)cc1` [Compound 211, N-[(2S)-1-[(2S,4R)-4-hydroxy-2-([[4-(4-methyl-1,3-thiazol-5-yl)phenyl]methyl]carbamoyl)pyrrolidin-1-yl]-3,3-dimethyl-1-oxobutan-2-yl]-N′-[(4-[[(2S)-2-[(1-methanesulfonylpyrrol-3-yl)formamido]-2-[(4-phenyl-1,3-thiazol-2-yl)carbamoyl]ethoxy]methyl]phenyl)methyl]tetradecanediamide], at HiBit-BRM fusion protein, the DC50 was over 10000 nM and the “BRM HiBit Degradation Maximum measured” value was “C (‘C’ = Maximum degradation <50%)”. In addition, in assay [1], the DC50 is over 10000 nM and the Dmax is under 50%.
For `CS(=O)(=O)n1ccc(C(=O)N[C@@H](COCc2ccc(CNC(=O)CCCCOc3cccc4c3C(=O)N(C3CCC(=O)NC3=O)C4=O)cc2)C(=O)Nc2nc(-c3ccccc3)cs2)c1` (stereo partly drawn) [Compound 212, 5-[[2-(2,6-dioxopiperidin-3-yl)-1,3-dioxoisoindol-4-yl]oxy]-N-[(4-[[(2S)-2-[(1-methanesulfonylpyrrol-3-yl)formamido]-2-[(4-phenyl-1,3-thiazol-2-yl)carbamoyl]ethoxy]methyl]phenyl)methyl]pentanamide], on HiBit-BRM fusion protein, the DC50 is over 10000 nM and the “BRM HiBit Degradation Maximum measured” value is “C (‘C’ = Maximum degradation <50%)”. Further, in assay [1], the DC50 is over 10000 nM and the Dmax was under 50%.
On to `CS(=O)(=O)n1ccc(C(=O)N[C@@H](COCc2ccc(CNC(=O)CCCCCCCOc3cccc4c3C(=O)N(C3CCC(=O)NC3=O)C4=O)cc2)C(=O)Nc2nc(-c3ccccc3)cs2)c1` (stereo partly drawn) [Compound 213, 8-[[2-(2,6-dioxopiperidin-3-yl)-1,3-dioxoisoindol-4-yl]oxy]-N-[(4-[[(2S)-2-[(1-methanesulfonylpyrrol-3-yl)formamido]-2-[(4-phenyl-1,3-thiazol-2-yl)carbamoyl]ethoxy]methyl]phenyl)methyl]octanamide], for which, on HiBit-BRM fusion protein, the DC50 lay within 100 to 1000 nM; the “BRM HiBit Degradation Maximum measured” value is “B (‘B’ = Maximum degradation ≥50% and ≤75%)”. Besides, in assay [1], the DC50 fell in the range of 100 to 1000 nM and the Dmax lay within 50 to 75%.
`CS(=O)(=O)n1ccc(C(=O)N[C@@H](COCc2ccc(CNC(=O)CCCCCCCCCCNc3cccc4c3C(=O)N(C3CCC(=O)NC3=O)C4=O)cc2)C(=O)Nc2nc(-c3ccccc3)cs2)c1` (stereo partly drawn) [Compound 214, 11-[[2-(2,6-dioxopiperidin-3-yl)-1,3-dioxoisoindol-4-yl]amino]-N-[(4-[[(2S)-2-[(1-methanesulfonylpyrrol-3-yl)formamido]-2-[(4-phenyl-1,3-thiazol-2-yl)carbamoyl]ethoxy]methyl]phenyl)methyl]undecanamide]: the DC50 (on HiBit-BRM fusion protein; in assay [1]) was 100 to 1000 nM each time. The “BRM HiBit Degradation Maximum measured” value at HiBit-BRM fusion protein is “B (‘B’ = Maximum degradation ≥50% and ≤75%)”.
Consider `CS(=O)(=O)n1ccc(C(=O)N[C@@H](COCc2ccc(CNC(=O)CCN3CCN(c4ccc5c(c4)C(=O)N(C4CCC(=O)NC4=O)C5=O)CC3)cc2)C(=O)Nc2nc(-c3ccccc3)cs2)c1` (stereo partly drawn) [Compound 215, (2S)-3-([4-[(3-[4-[2-(2,6-dioxopiperidin-3-yl)-1,3-dioxoisoindol-5-yl]piperazin-1-yl]propanamido)methyl]phenyl]methoxy)-2-[(1-methanesulfonylpyrrol-3-yl)formamido]-N-(4-phenyl-1,3-thiazol-2-yl)propanamide; formic acid], for which, on HiBit-BRM fusion protein, the DC50 lay in the range of 100 to 1000 nM; the “BRM HiBit Degradation Maximum measured” value is “B (‘B’ = Maximum degradation ≥50% and ≤75%)”. In assay [1], the DC50 fell in the range of 100 to 1000 nM and the Dmax was over 75%.
